The values that follow come from patent publication US9535058B2, “Flow chamber analyte detection method” (Drexel University, priority 2010, dated 2017).

The test system of this test is Bovine aortic endothelial cells (BAECs). Put plainly: Shear stress-induced NO production by endothelial cells in the two-compartment flow chamber, NO electrode measurement. Format: cell-based. To be noted: 1 mM L-NAME. The protocol: Bovine aortic endothelial cells (BAECs) were cultured in Dulbecco's modified Eagle's medium (Mediatech Cellgro), supplemented with 10% fetal bovine serum (Sigma), 2 mmol/l L-glutamine (Mediatech Cellgro), and penicillin-streptomycin (Mediatech Cellgro). The cells were grown to confluency and subsequently plated onto the lower surface of individual polyester Transwell® membranes (Corning Transwell Permeable Supports having a 24 mm diameter culture area with 3 μm pores). The Transwell® membranes were then placed in an incubator overnight, inverted and cultured for 1 day before conducting the experimental study. The Transwell® membranes were subsequently washed 3 three times with a solution of Dulbecco's Phosphate Buffered Saline (PBS) with calcium/magnesium (Sigma) supplemented with 70 μM L-arginine (L-arg) (Sigma) and inserted into the flow chamber.
The flow chamber included an electrode and equipment for measuring NO (TBR4100 4-channel Free Radical Analyzer and 200 μm diameter mini sensors for NO measurements ISO-NOPF). The electrodes were frequently recoated with nafion (Sigma) and re-calibrated during the experimental study to improve selectivity. The recoating process involved at least two dip/dry sessions. The electrodes were calibrated by the decomposition of a NO donor S-nitroso-N-acetyl-penicillamine (SNAP) using Cu(II). The SNAP was prepared by dissolving 5 mg EDTA and 5.0 mg+/−2.0 mg of SNAP in 250 mL HPLC grade water. The electrode was immersed in 12 mL of 0.1 M copper(II) sulfate in distilled water for about 1 to about 2 hours until the electrode stabilized. Aliquots of SNAP were sequentially added in an amount of about 10 μL, 20 μL, 40 μL, 80 μL after each signal reached a plateau. A multipoint calibration plot was created using Data-Trax software (produced by WPI). The sampling rate was 10 samples/s. The change in recorded potential was converted to corresponding molarities of NO produced by SNAP addition. The efficiency of the conversion of SNAP to NO was 0.6. Electrode sensitivity was at least about 10 pA/nM. […] The temperature probe supplied by WPI was pre-scaled using a two-point entry of known temperatures (0.03125V=1° C., 0.625V=20° C.).
The dimensions (in cm) of the flow channel were about: 4.57 W×12.19 L×0.025 H. The flow inlet and outlet had large reservoirs with sampling ports. A glass coverslip covered an opening in the bottom plate, allowing visualization of the cell layer and the electrode on an inverted microscope. As shown in FIGS. 5-6, endothelial cells were grown on the lower surface of a Transwell® porous membrane, which fit into the flow chamber flush with the upper plate of the flow chamber. […] Below the Transwell® membrane, fluid flowed through the parallel plate channel that defined the lower compartment, exposing the endothelial cells to uniform shear stress. Above the Transwell® membrane, a stagnant upper fluid compartment, having a small volume housed the NO electrode and temperature sensor. This design placed the electrode out of the fluid flow avoiding problems associated with potential flow sensitivities, flow disturbances and chamber leaking at the electrode insertion site. Furthermore, due to the small volume and zero flux condition at the other boundaries of the stagnant upper fluid compartment and the short diffusion distance through the membrane, the concentration of NO in the upper fluid compartment was nearly uniform and rapidly equilibrated with the concentration in the cell layer. The electrode was lowered into the upper compartment of the flow chamber until it rested on the surface of the Transwell® membrane at a fixed distance from the ECs of about 10 μm equal to the thickness of the membrane. This configuration allowed the NO generated by the cells to be measured abluminally from the endothelial cell layer. Due to the temperature sensitivity of the NO electrode, the flow chamber was enclosed in a water bath at 37° C. in order to prevent heat loss and temperature fluctuations. […]

Take `COC(=O)[C@@H](N)CCCNC(=N)N[N+](=O)[O-]` [L-NAME, Nω-Nitro-L-arginine methyl ester]: the “RNO (NO production rate) as % of RNO estimated from untreated ECs, hyperbolic model” value (L-arg also in perfusate, shear stress change 0.1 to 20 dyn/cm^2, hyperbolic model fit) is “about 57.6%”. In addition, for the setting “L-arg also in perfusate, shear stress change 0.1 to 20 dyn/cm^2, linear model fit”, the “RNO (NO production rate) as % of RNO estimated from untreated ECs, linear model” value is reported as “about 57.3%”. Further, under “L-arg also in perfusate, shear stress change 0.1 to 20 dyn/cm^2, sigmoidal model fit”, the “RNO (NO production rate) as % of RNO estimated from untreated ECs, sigmoidal model” value is on record as “about 58.3%”. In addition, the “reduction of steady-state NO concentration changes in response to shear stress step changes after treatment with L-NAME” value (pH 7.2, step changes from 0.1 dyn/cm^2 to 1, 6, 10 or 20 dyn/cm^2, vs before treatment, FIG. 10) is on record as 40%. For the same molecule, the “effect on shear stress-induced NO concentration changes (Example 1, in words)” value (flow-induced shear stress stimulation) is given as “partially attenuated”. Moreover, for the setting “shear stress step changes from 0.1 dyn/cm^2, FIG. 10”, the “steady-state NO concentration changes after treatment, as % of the untreated values (average)” value worked out at 60%. For the same molecule, where the note is “step changes from about 1 to about 5 and about 1 to about 10 dyn/cm^2”, the “effect on flow induced NO response (Example 2)” value is recorded as “significantly reduced”.
